TGI and GI50 data for 14 compounds are collected here from PubChem BioAssay (NCI).

Molecules are shown by their SMILES. Several values for one entry are separate records, joined by “and”; a condition that tells them apart may be missing. Equal values may be shown once.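 These data come from cells grown in 96-well plates and exposed to compound for 48 hours at five concentrations. At the GI50, growth is halved. TGI denotes the concentration required for complete inhibition of growth.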 Where a SMILES comes first, the peptide text is derived from it. Bridges are numbered along the chain shown (N, C = ends). [ ]: non-standard residue; d: D form. The star is where a group is joined. ξ: configuration not given here. X26 = O=C(/C=C/C=C/C=C/C=C/C=C/C(=O)*)NC1=C(O)CCC1=O; NMeA = CN[C@@H](C)C(=O)O; ξF = NC(Cc1ccccc1)C(=O)O; ξA = CC(N)C(=O)O

Some test systems named below: MDA-MB-231 breast; CAKI-1 renal; UACC-62 melanoma; MDA-N; NCI-H460 lung; DU-145 prostate; U251 CNS; HS 578T breast; SK-MEL-28 melanoma; SW-620 colon.
Holding throughout (experiment): NCI anticancer screen, dose series, 48 h

As for `COc1cc2c(cc1OC)[C@H]1CN3CCC[C@H]3C=C1c1ccc(OC)c(O)c1-2`, the TGI is 0.0523 µM with MDA-MB-231 breast; 0.000133 µM in the assay with CAKI-1 renal; 0.000267 µM in the assay with UACC-62 melanoma; 0.112 µM in the assay on MDA-N; 0.00509 µM and 0.0106 µM in the assay with NCI-H460 lung; 0.162 µM with DU-145 prostate. Also, the TGI amounted to 1.25 µM in the assay with U251 CNS and 0.00677 µM with HS 578T breast.
As to `CN(Cc1ccccc1)c1cc(=O)n(C)c(=O)[nH]1`, the TGI with SK-MEL-28 melanoma, with MDA-MB-231 breast, in the assay on CAKI-1 renal, in the assay with UACC-62 melanoma, with MDA-N and in the assay on NCI-H460 lung was > 100 µM in each case. The TGI in the assay on DU-145 prostate, in the assay with SW-620 colon, in the assay on U251 CNS and with HS 578T breast was > 100 µM in each case.
Turning to `Oc1[nH]c2ccc(Br)cc2c1N=NC(=S)Nc1ccc(F)cc1`, the TGI in the assay on SK-MEL-28 melanoma was found to be 39.8 µM; with MDA-MB-231 breast, 35.5 µM; in the assay with CAKI-1 renal, 19.3 µM; in the assay on UACC-62 melanoma, 13.8 µM; in the assay with MDA-N, 14.4 µM; in the assay with NCI-H460 lung, 15.3 µM. Also, the TGI was 22.3 µM in the assay with DU-145 prostate, 40.2 µM in the assay on SW-620 colon, 18.5 µM in the assay with U251 CNS and 63.6 µM in the assay on HS 578T breast.
As to `C[C@]12CC[C@@H]3c4ccc(O)cc4CC[C@H]3[C@@H]1C/C(=C\c1ccncc1)[C@@H]2O`, the TGI in the assay on SK-MEL-28 melanoma is > 100 µM; with MDA-MB-231 breast it was 41.2 µM; in the assay on CAKI-1 renal, 75.2 µM; in the assay with UACC-62 melanoma, 25.6 µM; in the assay with MDA-N, > 100 µM; in the assay on NCI-H460 lung it was 68.2 µM. The TGI in the assay with DU-145 prostate was > 100 µM; in the assay with SW-620 colon, > 100 µM; in the assay with U251 CNS, 39.6 µM; with HS 578T breast it was 20.9 µM.
With `Nc1ccc(-c2nc3ccccc3s2)cc1C(F)(F)F`, the TGI was determined as 33.9 µM in the assay on SK-MEL-28 melanoma; 26.3 µM in the assay on MDA-MB-231 breast; 28.7 µM in the assay with CAKI-1 renal; 30.6 µM in the assay with UACC-62 melanoma; 26.4 µM with MDA-N; 28.5 µM with NCI-H460 lung. Further, the TGI in the assay with DU-145 prostate is 29.2 µM; in the assay with SW-620 colon, 35.3 µM; in the assay on U251 CNS it was 28.7 µM; in the assay with HS 578T breast it was 43.5 µM. Besides, the GI50 in the assay with NCI-H460 lung is 14.6 µM.
In the case of `CC1NC(=O)[C@H](C)N(C)C(=O)[C@@H]2CCCN2C(=O)[C@@H](NC(=O)C(Cc2ccccc2)NC(=O)/C=C/C=C/C=C/C=C/C=C/C(=O)NC2=C(O)CCC2=O)COC(=O)[C@@H]2CCCN2C1=O` (stereo not given in full) (X26-[ξF]SP[NMeA][ξA]P; ester 2-C), the TGI with SK-MEL-28 melanoma, in the assay on MDA-MB-231 breast, in the assay on CAKI-1 renal, in the assay on UACC-62 melanoma, with MDA-N and with NCI-H460 lung was > 100 µM in each case. Further, the TGI with DU-145 prostate, in the assay on SW-620 colon, with U251 CNS and in the assay on HS 578T breast was > 100 µM in each case.
With `Cc1ccc(CC[P+](=O)CCc2ccc(C)nc2)cn1`, the TGI in the assay with SK-MEL-28 melanoma, with MDA-MB-231 breast, with CAKI-1 renal, in the assay on UACC-62 melanoma, with MDA-N and with NCI-H460 lung was > 100 µM each time. Also, the TGI in the assay on DU-145 prostate, with SW-620 colon, in the assay on U251 CNS and in the assay with HS 578T breast was > 100 µM in each case.
Turning to `C=C1c2cc3c(cc2CC12Cc1cc4c(cc1C2=O)CCC4)CCC3` (stereo not given), the TGI with SK-MEL-28 melanoma, with MDA-MB-231 breast, in the assay with CAKI-1 renal, in the assay on MDA-N, with NCI-H460 lung and in the assay with DU-145 prostate was > 100 µM throughout. In addition, the TGI with SW-620 colon, with U251 CNS and in the assay with HS 578T breast was > 100 µM throughout.
Turning to `CC(=O)O[C@H]1C(=O)[C@@]2(C)[C@H]([C@H](OC(=O)c3ccc(F)cc3)[C@]3(O)C[C@H](OC(=O)[C@H](O)[C@@H](NC(=O)c4ccccc4)c4ccccc4)C(C)=C1C3(C)C)[C@]1(OC(C)=O)CO[C@@H]1C[C@@H]2O`, the TGI was > 25 µM in the assay with SK-MEL-28 melanoma; > 25 µM with MDA-MB-231 breast; > 25 µM with CAKI-1 renal; > 25 µM in the assay with UACC-62 melanoma; 0.00496 µM with MDA-N; 2.31 µM with DU-145 prostate. Also, the TGI with SW-620 colon was > 25 µM; in the assay on U251 CNS, 0.738 µM; with HS 578T breast, 0.0559 µM.
On to `N/C(=N\S(=O)(=O)c1c(C(F)(F)F)cccc1C(F)(F)F)Nc1ccc(Cl)cc1`, for which the TGI is > 100 µM in the assay with SK-MEL-28 melanoma; 48.6 µM in the assay on MDA-MB-231 breast; 50.5 µM in the assay on UACC-62 melanoma; > 100 µM with MDA-N; > 100 µM in the assay on NCI-H460 lung; > 100 µM in the assay on DU-145 prostate. The values for the TGI in the assay with SW-620 colon, with U251 CNS and in the assay with HS 578T breast were > 100 µM, 36 µM and 68.6 µM, respectively.
With `c1ccc2c(c1)c1c(n2CCOCCN2CCOCC2)CCCC1`, the TGI in the assay with SK-MEL-28 melanoma was 52 µM; in the assay on MDA-MB-231 breast, 47 µM; in the assay on CAKI-1 renal it was > 100 µM; with MDA-N, > 100 µM; in the assay with NCI-H460 lung, > 100 µM; with DU-145 prostate it was > 100 µM. The TGI was > 100 µM in the assay on SW-620 colon, 64.6 µM with U251 CNS and > 100 µM with HS 578T breast.
As for `NNC1=N/C(=C\c2ccco2)C(Cl)=N1`, the TGI with SK-MEL-28 melanoma, in the assay on MDA-MB-231 breast, in the assay with CAKI-1 renal, in the assay with MDA-N, in the assay with DU-145 prostate and with SW-620 colon was > 100 µM each time. Also, the TGI in the assay on U251 CNS and with HS 578T breast was > 100 µM throughout.
`CCOC(=O)C(Cl)(Cl)/S(=N\S(=O)(=O)c1ccccc1)NC(=O)c1ccccc1` (stereo not given): the TGI in the assay with SK-MEL-28 melanoma, with MDA-MB-231 breast, with UACC-62 melanoma, in the assay with MDA-N, in the assay on NCI-H460 lung and with DU-145 prostate was > 100 µM in each case. Moreover, the TGI in the assay with SW-620 colon, in the assay with U251 CNS and in the assay with HS 578T breast was > 100 µM in each case.
Turning to `N#CCc1nc(-c2ccccc2)n[nH]1`, the TGI with MDA-MB-231 breast, with CAKI-1 renal, in the assay with UACC-62 melanoma, in the assay with MDA-N, with NCI-H460 lung and in the assay on DU-145 prostate was > 100 µM each time. Besides, the TGI with SW-620 colon and with HS 578T breast was > 100 µM in each case.
